The text below walks through data of patent US4443436A, “C-20-Modified macrolide derivatives of the macrolide antibiotics tylosin, desmycosin, macrocin, and lactenocin” (Eli Lilly and Company, priority 1982, dated 1984).

Test [1] concerns Pasteurella hemolytica 22C. Put plainly: MIC, broth-dilution microtiter test, Pasteurella hemolytica 22C. The test is classed as cell-based. The conditions noted are these: Pasteurella hemolytica 22C, broth-dilution microtiter. An excerpt:
(§1) The MIC's in Table X were obtained using conventional broth-dilution microtiter tests.

The next test relates to Mycoplasma hyorhinis. Put plainly: MIC, broth-dilution microtiter test, Mycoplasma hyorhinis. The test is classed as cell-based.
Description: as §1

The subject of test [2] is Staphylococcus aureus X1.1. As to the kind of experiment: MIC, standard agar-dilution assay, Staphylococcus aureus X1.1. The test is classed as cell-based.
Test [3] has as its system Haemophilus influenzae Holt. As to the kind of experiment: MIC, standard agar-dilution assay, Haemophilus influenzae Holt. As to conditions: Haemophilus influenzae Holt, ampicillin-sensitive strain. The test is classed as cell-based.
In test [4] the test system is Streptococcus pyogenes C203. As to the kind of experiment: MIC, standard agar-dilution assay, Streptococcus pyogenes C203. It is filed as cell-based.
Test [5] deals with Staphylococcus aureus X400. Put plainly: MIC, standard agar-dilution assay, Staphylococcus aureus X400. The test is classed as cell-based.
Test [6] relates to Staphylococcus aureus V41. As to the kind of experiment: MIC, standard agar-dilution assay, Staphylococcus aureus V41. It is filed as cell-based.
For a further test, the system named is Mycoplasma gallisepticum. As to the kind of experiment: MIC, broth-dilution microtiter test, Mycoplasma gallisepticum. The test is classed as cell-based.
Description: as §1

Test [7] deals with Streptococcus Group D X66. As to the kind of experiment: MIC, standard agar-dilution assay, Streptococcus Group D X66. It is filed as cell-based.
In the next test the test system is Staphylococcus aureus. As to the kind of experiment: MIC, broth-dilution microtiter test, Staphylococcus aureus. It is filed as cell-based.
Description: as §1

In test [8] the test system is Streptococcus pneumoniae Park I. Put plainly: microbe, parasite or virus in culture. It is filed as cell-based.
For test [9], the system named is Staphylococcus aureus S13E. Put plainly: MIC, standard agar-dilution assay, Staphylococcus aureus S13E. The test is classed as cell-based.
Test [10] concerns Pasteurella multocida 17E. Put plainly: MIC, broth-dilution microtiter test, Pasteurella multocida 17E. The conditions noted are these: Pasteurella multocida 17E, bovine isolate, broth-dilution microtiter. It is filed as cell-based.
Description: as §1

The test system of the next test is Mycoplasma synoviae. Put plainly: MIC, broth-dilution microtiter test, Mycoplasma synoviae. It is filed as cell-based. As to conditions: Mycoplasma synoviae, broth-dilution microtiter.
Description: as §1

Test [11] has as its system Pasteurella multocida 60A. As to the kind of experiment: MIC, broth-dilution microtiter test, Pasteurella multocida 60A. The test is classed as cell-based.
Description: as §1

In test [12] the test system is Staphylococcus epidermidis EPI1. Put plainly: MIC, standard agar-dilution assay, Staphylococcus epidermidis EPI1. The test is classed as cell-based.
Test [13] concerns Haemophilus influenzae R252. As to the kind of experiment: MIC, standard agar-dilution assay, Haemophilus influenzae R252. The test is classed as cell-based. The conditions noted are these: Haemophilus influenzae R252, ampicillin-resistant strain.
In the next test the test system is Streptococcus Group 9960. Put plainly: MIC, standard agar-dilution assay, Streptococcus Group 9960. It is filed as cell-based. The conditions noted are these: Streptococcus Group 9960, agar dilution. (In agar dilution the substance is mixed into plates at graded concentrations.)
Test [14] has as its system Staphylococcus epidermidis EPI2. Put plainly: MIC, standard agar-dilution assay, Staphylococcus epidermidis EPI2. The test is classed as cell-based.
In another test the test system is Streptococcus bovis 80. As to the kind of experiment: MIC, broth-dilution microtiter test, Streptococcus bovis 80. The test is classed as cell-based. The conditions noted are these: Streptococcus bovis 80, broth-dilution microtiter.
Description: as §1

Test [15] has as its system Streptococcus pyogenes C203. Put plainly: In vivo protection of mice experimentally infected with S. pyogenes C203. The conditions noted are these: mice, doses given 1 and 4 hours post-infection. The procedure: The C-20 modified derivatives of this invention have shown in vivo antimicrobial activity against experimentally-induced infections in laboratory animals. When two doses of test compound were administered to mice experimentally infected with S. pyogenes C203, the activity observed was measured as an ED50 value [effective dose in mg/kg to protect 50% of the test animals: see Warren Wick, et al., J. Bacteriol. 81, 233-235 (1961)].

Setting [16] is: Mycoplasmopsis synoviae, read-out: MIC.
Setting [17] is: Staphylococcus epidermidis, EPI1.
Where [18] appears, read: Staphylococcus epidermidis, EPI2.
The mark [19] stands for this setting: Streptococcus equinus, read-out: MIC.

Each structure is given as a SMILES string. Values after ≈ are worked out from the molar mass of the structure shown. Where two headings read alike, the source gives them in different places.

As to `CCC1OC(=O)CC(O)C(C)C(OC2OC(C)C(O)C(N(C)C)C2O)C(CCO[N+](=O)[O-])CC(C)C(=O)C=CC(C)=CC1COC1OC(C)C(O)C(OC)C1OC` (stereo not shown) [Compound 28, 20-DH-20-O-NO2-desmycosin], the MIC worked out at 25 µg/mL (≈ 30.5 µM) in [1] (read-out: MIC); 50 µg/mL (≈ 61.1 µM) against Mycoplasma hyorhinis (Mycoplasma); 0.25 µg/mL (≈ 0.305 µM) in test [2] (Staphylococcus aureus, X1.1); 16 µg/mL (≈ 19.5 µM) in [3] (read-out: MIC); 0.25 µg/mL (≈ 0.305 µM) in test [4] (Streptococcus pyogenes, C203); 0.25 µg/mL (≈ 0.305 µM) in [5] (Staphylococcus aureus, X400). Besides, the MIC in [6] (Staphylococcus aureus, V41) came to 0.25 µg/mL (≈ 0.305 µM); in the test with Mycoplasma gallisepticum (Mycoplasmoides gallisepticum, Mycoplasma gallisepticum, broth-dilution microtiter, read-out: MIC), 0.78 µg/mL (≈ 0.952 µM); in test [7] (Streptococcus Group D X66, agar dilution, read-out: MIC), 8 µg/mL (≈ 9.77 µM); in the test on Staphylococcus aureus (broth-dilution microtiter, read-out: MIC), 1.56 µg/mL (≈ 1.9 µM); in [8] (Streptococcus pneumoniae Park I, agar dilution, read-out: MIC), 2 µg/mL (≈ 2.44 µM); in test [9] (Staphylococcus aureus, S13E), 0.25 µg/mL (≈ 0.305 µM). Also, the MIC in [10] (read-out: MIC) is 25 µg/mL (≈ 30.5 µM); in the test with Mycoplasma synoviae (setting [16]), 0.78 µg/mL (≈ 0.952 µM); in test [11] (Pasteurella multocida, 60A) it was 50 µg/mL (≈ 61.1 µM); in [12] (setting [17]) it was 0.25 µg/mL (≈ 0.305 µM); in test [13] (read-out: MIC), 16 µg/mL (≈ 19.5 µM); with Streptococcus Group 9960 (GROUP9960, read-out: MIC) it was 8 µg/mL (≈ 9.77 µM). Also, the results for the MIC (in test [14] (setting [18]); in the test on Streptococcus bovis 80 (setting [19])) were 0.25 µg/mL (≈ 0.305 µM) and 12.5 µg/mL (≈ 15.3 µM), respectively.
`CCC1OC(=O)CC(O)C(C)C(OC2OC(C)C(O)C(N(C)C)C2O)C(CCOc2ccc(CN3CCCCCC3)cc2)CC(C)C(=O)C=CC(C)=CC1COC1OC(C)C(O)C(OC)C1OC` (stereo not shown) [Compound 42, 20-DH-20-O-[p-(Hexahydroazepin-1-ylmethyl)phenyl]desmycosin]: the MIC in test [1] turned out to be 12.5 µg/mL (≈ 13 µM); against Mycoplasma hyorhinis (Mycoplasma hyorhinis, broth-dilution microtiter), 25 µg/mL (≈ 26 µM); in test [2] (Staphylococcus aureus X1.1, agar dilution), 0.5 µg/mL (≈ 0.52 µM); in [3] (agar dilution) it was 32 µg/mL (≈ 33.3 µM); in test [4] (Streptococcus pyogenes C203, agar dilution), 0.5 µg/mL (≈ 0.52 µM); in test [5] (Staphylococcus aureus X400, methicillin-resistant strain, agar dilution), 1 µg/mL (≈ 1.04 µM). Also, the MIC in [6] (Staphylococcus aureus V41, penicillin-resistant strain, agar dilution) was found to be 0.1 µg/mL (≈ 0.104 µM); against Mycoplasma gallisepticum (Mycoplasma gallisepticum, broth-dilution microtiter) it was 0.39 µg/mL (≈ 0.406 µM); in test [7] (Streptococcus Group D X66, agar dilution) it was 8 µg/mL (≈ 8.32 µM); against Staphylococcus aureus (broth-dilution microtiter), 1.56 µg/mL (≈ 1.62 µM); in [9] (Staphylococcus aureus S13E, agar dilution), 0.5 µg/mL (≈ 0.52 µM); in test [10], 12.5 µg/mL (≈ 13 µM). Further, the MIC amounted to 0.195 µg/mL (≈ 0.203 µM) against Mycoplasma synoviae; 12.5 µg/mL (≈ 13 µM) in [11] (Pasteurella multocida 60A, avian isolate, broth-dilution microtiter); 0.5 µg/mL (≈ 0.52 µM) in test [12] (Staphylococcus epidermidis EPI1, agar dilution); 32 µg/mL (≈ 33.3 µM) in test [13] (agar dilution); 8 µg/mL (≈ 8.32 µM) with Streptococcus Group 9960; 0.25 µg/mL (≈ 0.26 µM) in test [14] (Staphylococcus epidermidis EPI2, agar dilution). The MIC in the test with Streptococcus bovis 80 was 3.12 µg/mL (≈ 3.25 µM). Also, the “ED50, Oral” value in [15] (oral) is over 100 mg/kg × 2. For the same compound, in [15] (subcutaneous), the “ED50, Subcutaneous” value was over 25 mg/kg × 2.
`CCOC(=O)NN(CCC1CC(C)C(=O)C=CC(C)=CC(COC2OC(C)C(O)C(OC)C2OC)C(CC)OC(=O)CC(O)C(C)C1OC1OC(C)C(OC2CC(C)(O)C(O)C(C)O2)C(N(C)C)C1O)C(=O)OCC` (stereo not shown) [Compound 9, 20-DH-DO-20-[N-(Ethoxycarbonyl)-N-(ethoxycarbonylamino)]aminotylosin]: the MIC is over 50 µg/mL in test [1] (read-out: MIC); over 50 µg/mL in the test on Mycoplasma hyorhinis (Mycoplasma hyorhinis, broth-dilution microtiter, read-out: MIC); 2 µg/mL (≈ 1.86 µM) in test [2] (Staphylococcus aureus, X1.1); over 128 µg/mL in test [3] (read-out: MIC); 16 µg/mL (≈ 14.9 µM) in test [4] (Streptococcus pyogenes, C203); 8 µg/mL (≈ 7.43 µM) in test [5] (Staphylococcus aureus, X400). Also, the MIC in test [6] (Staphylococcus aureus, V41) is 2 µg/mL (≈ 1.86 µM); in the test with Mycoplasma gallisepticum (Mycoplasmoides gallisepticum), 1.56 µg/mL (≈ 1.45 µM); in test [7], over 128 µg/mL; in the test on Staphylococcus aureus it was 6.25 µg/mL (≈ 5.81 µM); in test [8] (Streptococcus pneumoniae) it was 2 µg/mL (≈ 1.86 µM); in test [9] (Staphylococcus aureus, S13E), 2 µg/mL (≈ 1.86 µM). The MIC was over 50 µg/mL in test [10] (read-out: MIC); 25 µg/mL (≈ 23.2 µM) in the test on Mycoplasma synoviae (setting [16]); over 50 µg/mL in test [11] (Pasteurella multocida 60A, avian isolate, broth-dilution microtiter, read-out: MIC); 4 µg/mL (≈ 3.72 µM) in test [12] (setting [17]); over 128 µg/mL in [13] (read-out: MIC); over 128 µg/mL in the test on Streptococcus Group 9960 (GROUP9960, read-out: MIC). Besides, the MIC in test [14] (setting [18]) was 2 µg/mL (≈ 1.86 µM); in the test with Streptococcus bovis 80 (setting [19]), over 50 µg/mL.
